In PubChem BioAssay (NCI):
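1) Cells in 96-well plates. 2) Compound, 48 h, 5 concentrations. 3) Linear interpolation between surrounding doses. 4) Unreached endpoint = highest concentration. GI50 is the concentration that inhibits growth by half. TGI marks complete inhibition of growth.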

Key:
Experiment in all cases: growth of human tumour cells (NCI), 48 h
786-0 renal = test system: 786-0 renal
TK-10 renal = test system: TK-10 renal
SK-MEL-5 melanoma = test system: SK-MEL-5 melanoma
UACC-257 melanoma = test system: UACC-257 melanoma
HOP-92 NSCLC = test system: HOP-92 NSCLC
HT29 colon = test system: HT29 colon
HCC-2998 colon = test system: HCC-2998 colon
SR leukemia = test system: SR leukemia
NCI-H226 lung = test system: NCI-H226 lung
PC-3 prostate = test system: PC-3 prostate

| SMILES | GI50 (786-0 renal) [nM] | TGI (786-0 renal) [nM] | GI50 (TK-10 renal) [nM] | TGI (TK-10 renal) [nM] | GI50 (SK-MEL-5 melanoma) [nM] | TGI (SK-MEL-5 melanoma) [nM] | GI50 (UACC-257 melanoma) [nM] | TGI (UACC-257 melanoma) [nM] | GI50 (HOP-92 NSCLC) [nM] | GI50 (HT29 colon) [nM] | TGI (HT29 colon) [nM] | GI50 (HCC-2998 colon) [nM] | TGI (HCC-2998 colon) [nM] | GI50 (SR leukemia) [nM] | TGI (SR leukemia) [nM] | GI50 (NCI-H226 lung) [nM] | TGI (NCI-H226 lung) [nM] | GI50 (PC-3 prostate) [nM] | TGI (PC-3 prostate) [nM] | TGI (HOP-92 NSCLC) [nM] |
| --- | --- | --- | --- | --- | --- | --- | --- | --- | --- | --- | --- | --- | --- | --- | --- | --- | --- | --- | --- | --- |
| CN(C)c1ccc(/C=C/c2ccnc3c(O)cccc23)cc1 | 886 | > 26200 | 1680 | > 100000 | 370 | 3050 | 409 | 3080 | 211 | 11700 | > 100000 | 2090 | > 100000 | 321 | > 100000 | 2310 | > 26800 | 383 | > 100000 |  |
| CN1CCC(COc2cnc(-c3cccc(Cn4nc(-c5cccc(C#N)c5)ccc4=O)c3)nc2)CC1 | 1970 | 3860 | 2650 | 6150 | 1490 | 2850 | 1810 | 3520 | 1020 | 2040 | 4660 | 6340 | 18700 | 2080 | 4490 | 7180 | 24800 | 6700 | 31800 | 12600 |
| O=C(O)/C=C/C(=O)N1Cc2cc3ccccc3nc2C1 |  | > 100000 |  | > 100000 |  | > 100000 |  | > 100000 |  |  | > 100000 |  | > 100000 |  | > 100000 |  | > 100000 |  | > 100000 | > 100000 |
| COc1ccc(C(=O)Nc2ncc(Cc3cccc(Cl)c3)s2)cc1OC | 1330 | > 100000 | 7850 | > 100000 | 247 | 11100 | 566 | > 100000 | 1990 | 148 | > 100000 | 134 | > 44100 | 164 | > 100000 | 1480 | > 100000 | 1500 | > 100000 | > 100000 |
| CCOC(=O)[C@@H](C)C[C@H](Cc1ccccc1)NC(=O)c1nc([C@@H](C[C@H](C(C)C)N(C)C(=O)[C@@H](NC(=O)[C@H]2CCCCN2C)C(C)C)OC(C)=O)sc1CCOCc1ccccc1 | 80 | 1590 | 631 | 5280 | 50 | 380 | 1510 | 4190 | 109 | 37.5 | 1400 | 119 | 1130 | 31.3 | 1870 | 107 | 1050 | 52.1 | 2410 | 2340 |
